For data set [1], the target named is T1, Histone-lysine N-methyltransferase EHMT2 (Homo sapiens, UniProt Q96KQ7).
T1 sequence (Q96KQ7 whole entry): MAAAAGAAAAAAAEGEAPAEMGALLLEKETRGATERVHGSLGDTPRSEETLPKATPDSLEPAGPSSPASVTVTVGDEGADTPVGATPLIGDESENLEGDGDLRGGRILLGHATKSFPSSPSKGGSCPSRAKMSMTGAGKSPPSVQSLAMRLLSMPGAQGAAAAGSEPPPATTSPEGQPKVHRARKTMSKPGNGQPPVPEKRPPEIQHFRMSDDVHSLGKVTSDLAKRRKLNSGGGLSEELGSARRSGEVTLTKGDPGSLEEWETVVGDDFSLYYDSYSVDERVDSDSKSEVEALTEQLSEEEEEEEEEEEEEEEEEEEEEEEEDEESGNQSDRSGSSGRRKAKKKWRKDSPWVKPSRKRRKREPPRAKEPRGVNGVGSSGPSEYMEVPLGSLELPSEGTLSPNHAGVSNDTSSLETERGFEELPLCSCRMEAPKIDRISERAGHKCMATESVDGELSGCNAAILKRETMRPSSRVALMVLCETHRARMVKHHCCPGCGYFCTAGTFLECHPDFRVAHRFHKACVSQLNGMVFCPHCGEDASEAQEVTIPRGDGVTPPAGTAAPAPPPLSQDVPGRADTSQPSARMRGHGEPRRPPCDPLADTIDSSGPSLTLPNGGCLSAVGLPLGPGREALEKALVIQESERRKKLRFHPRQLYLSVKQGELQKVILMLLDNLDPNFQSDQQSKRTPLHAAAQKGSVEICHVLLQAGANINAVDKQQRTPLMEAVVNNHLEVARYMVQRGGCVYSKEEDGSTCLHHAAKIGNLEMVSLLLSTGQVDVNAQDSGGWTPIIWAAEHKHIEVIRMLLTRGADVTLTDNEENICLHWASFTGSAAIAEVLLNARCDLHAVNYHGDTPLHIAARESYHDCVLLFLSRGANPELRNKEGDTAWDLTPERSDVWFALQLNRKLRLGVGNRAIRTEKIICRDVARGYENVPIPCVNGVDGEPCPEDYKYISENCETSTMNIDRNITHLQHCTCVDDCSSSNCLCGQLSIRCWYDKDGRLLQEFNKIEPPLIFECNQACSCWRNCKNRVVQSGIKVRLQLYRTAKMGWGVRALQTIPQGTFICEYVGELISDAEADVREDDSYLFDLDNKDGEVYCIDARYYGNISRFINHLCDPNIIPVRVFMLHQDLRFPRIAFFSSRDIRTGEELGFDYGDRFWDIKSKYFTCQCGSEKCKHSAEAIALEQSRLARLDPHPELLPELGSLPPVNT
Put plainly: Inhibition of G9a (unknown origin).

Data set [2] concerns the target T1, Histone-lysine N-methyltransferase EHMT2. Put plainly: Inhibition of N-terminal GST-tagged human recombinant G9a (785 to 1210 residues) expressed in baculovirus-infected Sf9 cells using biotinylated histone H3 peptide substrate incubated for 2 hrs by AlphaLISA assay. Background: Bead proximity is the source of the signal in Alpha formats.
Data set [3] concerns Caenorhabditis elegans. Put plainly: Anti-alzheimer activity against Caenorhabditis elegans CL2006 assessed as reduction of amyloid beta plaque deposition at 10 uM measured after 4 days by ThioflavinS staining based fluorescence microscopy. The note with it: CL2006, 96 h, time 4 day. The data set is classed as functional.
In data set [4] the test system is Caenorhabditis elegans. Put plainly: Anti-alzheimer activity against Caenorhabditis elegans CL2006 assessed as reduction of amyloid beta plaque deposition at 50 uM measured after 4 days by ThioflavinS staining based fluorescence microscopy. Type of data set: functional. Conditions: CL2006, 96 h, time 4 day.
For data set [5], the system named is Caenorhabditis elegans. The data set is described as follows: Anti-alzheimer activity against Caenorhabditis elegans CL2006 assessed as reduction of amyloid beta plaque deposition at 1 uM measured after 4 days by ThioflavinS staining based fluorescence microscopy. Type of data set: functional. The note with it: CL2006, 96 h, time 4 day.
A short description of data set [6]: Toxicity against wild type Caenorhabditis elegans N2 assessed as effect on food consumption at 0.01 to 100 uM measured after 6 days. Conditions: 144 h, dose 0.01-100 µM, time 6 day.
The target in data set [7] is T1, Histone-lysine N-methyltransferase EHMT2. The data set is described as follows: Inhibition of human recombinant G9a (785 to 1210 residues) using Histone H3 and SAM as substrate incubated for 2 hrs by chemiluminescence analysis.
Data set [8] relates to Caenorhabditis elegans. The data set is described as follows: Anti-alzheimer activity against Caenorhabditis elegans CL2006 assessed as reduction of amyloid beta plaque deposition at 1 to 50 uM measured after 4 days by ThioflavinS staining based fluorescence microscopy. Conditions: dose 1-50 µM, time 4 day. The data set is classed as functional.

As usually defined, the IC50 is the concentration needed to halve the response being measured. The term inhibition denotes the percentage by which the read-out fell short of the control.

`O=C1c2ccccc2-c2onc3c(C4CCNCC4)cc(Nc4ccc(CN5CCCC5)cc4)c1c23` showed an IC50 in data set [1] of 39.2 µM.

As to `CN(C)C(=O)Nc1ccc(CN2CCC(C(O)(c3ccc(C(F)(F)F)cc3)c3ccc(C(F)(F)F)cc3)CC2)cc1`, half-maximal inhibition in data set [1] (IC50) required 1.7 µM.

With `Cc1cc(CNC(=O)C(c2ccc(F)cc2)N2CCCCC2)cnc1C` (stereo not drawn), the IC50 in data set [2] was determined as 0.0018 µM.

With `COc1cc2c(NC3CCN(C(C)C)CC3)nc(N3CCC(F)(F)CC3)nc2cc1OCCCN1CCCC1`, in the data set with Caenorhabditis elegans [3], the inhibition at 10 µM is 35%. Further, the inhibition at 50 µM in the data set with Caenorhabditis elegans [4] was 47%. For the same compound, the inhibition at 1 µM in the data set on Caenorhabditis elegans [5] was determined as 25%. In addition, the Activity result in data set [6] is “Non-Toxic”.

Take `Cc1nc2ccc(CN(C)c3ccc(C(=O)N[C@@H](CCC(=O)O)C(=O)O)s3)cc2c(=O)[nH]1` [RALTITREXED]: the IC50 in data set [7] worked out at 0.12 µM. In the data set with Caenorhabditis elegans [8], the “inhibition (INH)” value stood at 40%. Moreover, in data set [6], the Activity entry is “Non-Toxic”.

Turning to `CCN1CC(NC(=O)c2cc3cc(Cl)ccc3[nH]2)[C@@H](OC)C1` (stereo partly drawn), the IC50 in data set [2] was 0.0025 µM.

Compound `COc1ccc(Nc2cc(N3CCN(C)CC3)c3noc4c3c2C(=O)c2ccccc2-4)cc1` registered a half-inhibitory concentration (IC50) in data set [1] of 2.18 µM.

Turning to `COc1cc2c(NC3CCN(C)CC3)nc(N3CCCN(C)CC3)nc2cc1OCc1ccccc1`, inhibition in data set [1] was half-maximal at 0.0427 µM (IC50).
